Data: article PMC5917077, “CD22-Binding Synthetic Sialosides Regulate B Lymphocyte Proliferation Through CD22 Ligand-Dependent and Independent Pathways, and Enhance Antibody Production in Mice” (Frontiers in Immunology, 2018)

Legend:
CD22 (Siglec-2) [1] = target: T1, CD22 (Siglec-2) (Homo sapiens, UniProt P20273); assay: competition ELISA, human CD22-Fc binding to immobilized α1-acid glycoprotein
T1 construct: amino-terminal domains (domains 1–3) fused to Fc region of human IgG1 (CD22-Fc)
T1 sequence (P20273 20-326 limits assumed): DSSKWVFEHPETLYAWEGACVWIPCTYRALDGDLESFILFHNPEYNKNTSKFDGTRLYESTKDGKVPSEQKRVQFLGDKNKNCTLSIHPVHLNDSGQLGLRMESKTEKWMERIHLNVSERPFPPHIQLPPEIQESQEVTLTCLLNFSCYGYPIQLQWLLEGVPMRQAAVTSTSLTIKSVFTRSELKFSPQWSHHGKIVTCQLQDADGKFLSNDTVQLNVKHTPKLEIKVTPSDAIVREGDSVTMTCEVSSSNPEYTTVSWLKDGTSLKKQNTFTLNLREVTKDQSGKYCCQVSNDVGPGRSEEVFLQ

CD22 (Siglec-2) [2] = target: T2, CD22 (Siglec-2) (Mus musculus, UniProt P35329); assay: competition ELISA, mouse CD22-Fc binding to immobilized biotinylated synthetic CD22 ligand
T2 construct: amino-terminal domains (domains 1–3) fused to Fc region of human IgG1 (CD22-Fc)
T2 sequence (P35329 22-347 limits assumed): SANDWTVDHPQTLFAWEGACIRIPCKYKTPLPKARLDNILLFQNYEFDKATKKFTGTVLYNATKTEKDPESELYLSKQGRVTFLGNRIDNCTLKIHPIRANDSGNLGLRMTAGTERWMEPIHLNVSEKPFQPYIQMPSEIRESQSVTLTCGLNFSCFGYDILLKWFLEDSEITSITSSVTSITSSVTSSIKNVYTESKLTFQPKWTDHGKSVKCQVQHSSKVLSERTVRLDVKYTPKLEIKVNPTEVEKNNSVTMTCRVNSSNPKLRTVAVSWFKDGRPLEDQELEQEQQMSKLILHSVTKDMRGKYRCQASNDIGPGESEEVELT

| IC50 (CD22 (Siglec-2) [1]) [nM] | IC50 (CD22 (Siglec-2) [2]) [nM] | SMILES |
| --- | --- | --- |
| ~100 | ~100 | O=C(Cc1ccc(-c2ccc(O)cc2)cc1)NC[C@@H](O)[C@@H](O)[C@@H]1O[C@@](OCc2ccccc2)(C(=O)O)C[C@H](O)[C@H]1NC(=O)CO [GSC718] |
| ~100 | ~100 | O=C(Cc1ccc(-c2ccc(O)cc2)cc1)NC[C@@H](O)[C@@H](O)[C@@H]1OC(OCc2ccc(F)cc2)(C(=O)O)C[C@H](O)[C@H]1NC(=O)CO (stereo partly shown) [GSC839] |
